Series [1] relates to human ACC1. In words: Human ACC1 enzyme assay (ADP-Glo). In kind it is biochemical.
Series [2] has as its system KM12. In words: Tumour cell proliferation, CellTiter-Glo, 96-hour incubation, KM12. The series is classed as cell-based. To be noted: Homo sapiens, KM12, 96 h; read-out: KM12 IC50. The protocol: (§1) In accordance with the invention, the substances were tested in cell-based assays for the ability of the substances of inhibiting tumour cell proliferation after a 96-hour incubation with the substance. Cell viability was tested using the CellTiter-Glo® luminescent cell viability assay (Promega). The cells were sown at a density of 2000-5000 cells/well (depending on the cell line) in 100 μl growth medium on 96-well microtiter plates. For each cell line examined, cells were sown on a separate plate to determine the luminescence at t=0 hours and t=96 hours. After overnight incubation at 37° C., the luminescence values for the t=0 samples were determined. The dose plates for the t=96 hours points in time were treated with substances diluted with growth medium. The cells were then incubated at 37° C. for 96 hours, and the luminescence values for the t=96 hours samples were then determined. For data analysis, the t=0 values were subtracted from the t=96 hours values for treated and untreated samples. The differences in luminescence in percent between substance-treated samples and control values were used to determine the growth inhibition in percent.
(§2) The substances were tested in the following cell lines which represent the stated indications in an exemplary manner: […]

For series [3], the system named is PC3. In words: Tumour cell proliferation, CellTiter-Glo, 96-hour incubation, PC3. The series is classed as cell-based. Particulars: Homo sapiens, PC-3, 96 h; read-out: PC3 IC50. The method, then: as §1, §2
(In general: ATP-based viability assays read luminescence as a measure of living cells.)

Series [4] deals with H460. Put plainly: Tumour cell proliferation, CellTiter-Glo, 96-hour incubation, H460. To be noted: Homo sapiens, NCI-H460, 96 h; read-out: H460 IC50. In kind it is cell-based. The method, then: as §1, §2
Series [5] deals with MCF7. In words: Tumour cell proliferation, CellTiter-Glo, 96-hour incubation, MCF7. In kind it is cell-based. To be noted: Homo sapiens, MCF7, 96 h; read-out: MCF7 IC50. The method, then:
as §1, §2

Series [6] is described as follows: Octanol/water distribution coefficient (logP/D), isocratic HPLC method. In kind it is physicochemical. To be noted: pH 7.4. An excerpt:
Assay for Determining the Octanol/Water Distribution Coefficient (logP/D):
The distribution coefficient octanol/water P or D is a key parameter for estimating membrane penetration and permeability. It is defined as the ratio of the equilibrium concentrations of a substance in the two-phase system octanol/water.
It is usually stated in form of the decadic logarithm (logP or logD).
logP describes the distribution behaviour of a substance exclusively present in its neutral form. logD describes the distribution behaviour of a substance at a certain pH; depending on the ionization constant pKa of the substance, some of the substance may be present in ionic form, and some in neutral form.
The logP/D of the active compounds was determined using an isocratic HPLC method (HPLC=high performance liquid chromatography) (literature: OECD Guideline for Testing of Chemicals No. 117). The method is based on the correlation of the HPLC retention time of the test substance to that of reference substances with known distribution coefficients.
The test substance was employed as a 10 mM solution in DMSO (DMSO=dimethyl sulphoxide). 10 μl of this solution were made up to 100 μl with a methanol/water mixture in a ratio of 7+3.
The nine reference substances were dissolved individually in methanol. 100 μl each of the stock solutions were added to an HPLC vial and mixed with 300 μl of water.
A formamide solution was used to determine the hold-up time. To this end, 7 mg of formamide were dissolved in 10 ml of methanol. 100 μl of this stock solution were mixed with 500 μl of methanol and 200 μl of water.
All solutions were chromatographed using a flow rate of 1.00 ml/min.
Injection Protocol: formamide, references, test substance 1, test substance 2, . . . , formamide, references.
Evaluation of the retention times was carried out in a diode array detector (DAD) at 200-400 nm Via the molecular mass, the identity of the test substance was checked using the downstream mass spectrometer.
The HPLC run was evaluated using the Waters software Masslynx 4.1.
The logP/D values were calculated using the software “POW Determination” (proprietary development).

The nature of series [7]: Membrane affinity logMA (MA-Transil). To be noted: buffer pH 7.4. In kind it is physicochemical.
For series [8], the system named is plasma proteins. Put plainly: Plasma protein binding by equilibrium dialysis, mouse. In kind it is in vitro ADME. The protocol: The binding of test substances to plasma proteins is determined by equilibrium dialysis by means of the Ht-dialysis apparatus (96-well) made of Teflon and a semipermeable membrane (regenerated cellulose, MWCO 12-14K). This separates 150 μl each of a plasma side and a buffer side (50 mM phosphate buffer). The test substance is added in 2 concentrations (usually 3 and 0.3 μM) to the plasma side and binds to plasma proteins. The unbound fraction of the test substance passes through the membrane and is distributed on either side until equilibrium is established (after approx. 6-8 h at 37° C.). The substance concentration on the buffer side and the plasma side is determined by LC-MS analysis. For this, both sides are brought by dilution with buffer or plasma to the same matrix (10% plasma) and then precipitated with methanol. The free (unbound) fraction (fu) is calculated from the quotient of the buffer and plasma concentration. Stability tests and recovery tests are run concurrently as controls. In addition, the substance in buffer is dialysed against buffer, to check the nonspecific binding to apparatus and membrane and establishment of equilibrium. Because during incubation the osmotic pressure of the plasma proteins leads to dilution of the plasma (volume shift), this possible error is determined by weighing blank plasma samples and is included in the calculation of fu. Establishment of equilibrium and plasma stability should have a value not lower than 80% and the recovery should be at least 30%. A free fraction of <1% is regarded as high, between 1 and 10% as moderate and >10% as low plasma protein binding.
For orientation: In equilibrium dialysis only unbound substance equilibrates across the membrane.

For series [9], the target named is human ACC2 (Homo sapiens, UniProt O00763). Put plainly: Human ACC2 enzyme assay (ADP-Glo). To be noted: ACC 2 IC50, individual measurements.
Sequence of human ACC2 (O00763 27-2458 limits assumed): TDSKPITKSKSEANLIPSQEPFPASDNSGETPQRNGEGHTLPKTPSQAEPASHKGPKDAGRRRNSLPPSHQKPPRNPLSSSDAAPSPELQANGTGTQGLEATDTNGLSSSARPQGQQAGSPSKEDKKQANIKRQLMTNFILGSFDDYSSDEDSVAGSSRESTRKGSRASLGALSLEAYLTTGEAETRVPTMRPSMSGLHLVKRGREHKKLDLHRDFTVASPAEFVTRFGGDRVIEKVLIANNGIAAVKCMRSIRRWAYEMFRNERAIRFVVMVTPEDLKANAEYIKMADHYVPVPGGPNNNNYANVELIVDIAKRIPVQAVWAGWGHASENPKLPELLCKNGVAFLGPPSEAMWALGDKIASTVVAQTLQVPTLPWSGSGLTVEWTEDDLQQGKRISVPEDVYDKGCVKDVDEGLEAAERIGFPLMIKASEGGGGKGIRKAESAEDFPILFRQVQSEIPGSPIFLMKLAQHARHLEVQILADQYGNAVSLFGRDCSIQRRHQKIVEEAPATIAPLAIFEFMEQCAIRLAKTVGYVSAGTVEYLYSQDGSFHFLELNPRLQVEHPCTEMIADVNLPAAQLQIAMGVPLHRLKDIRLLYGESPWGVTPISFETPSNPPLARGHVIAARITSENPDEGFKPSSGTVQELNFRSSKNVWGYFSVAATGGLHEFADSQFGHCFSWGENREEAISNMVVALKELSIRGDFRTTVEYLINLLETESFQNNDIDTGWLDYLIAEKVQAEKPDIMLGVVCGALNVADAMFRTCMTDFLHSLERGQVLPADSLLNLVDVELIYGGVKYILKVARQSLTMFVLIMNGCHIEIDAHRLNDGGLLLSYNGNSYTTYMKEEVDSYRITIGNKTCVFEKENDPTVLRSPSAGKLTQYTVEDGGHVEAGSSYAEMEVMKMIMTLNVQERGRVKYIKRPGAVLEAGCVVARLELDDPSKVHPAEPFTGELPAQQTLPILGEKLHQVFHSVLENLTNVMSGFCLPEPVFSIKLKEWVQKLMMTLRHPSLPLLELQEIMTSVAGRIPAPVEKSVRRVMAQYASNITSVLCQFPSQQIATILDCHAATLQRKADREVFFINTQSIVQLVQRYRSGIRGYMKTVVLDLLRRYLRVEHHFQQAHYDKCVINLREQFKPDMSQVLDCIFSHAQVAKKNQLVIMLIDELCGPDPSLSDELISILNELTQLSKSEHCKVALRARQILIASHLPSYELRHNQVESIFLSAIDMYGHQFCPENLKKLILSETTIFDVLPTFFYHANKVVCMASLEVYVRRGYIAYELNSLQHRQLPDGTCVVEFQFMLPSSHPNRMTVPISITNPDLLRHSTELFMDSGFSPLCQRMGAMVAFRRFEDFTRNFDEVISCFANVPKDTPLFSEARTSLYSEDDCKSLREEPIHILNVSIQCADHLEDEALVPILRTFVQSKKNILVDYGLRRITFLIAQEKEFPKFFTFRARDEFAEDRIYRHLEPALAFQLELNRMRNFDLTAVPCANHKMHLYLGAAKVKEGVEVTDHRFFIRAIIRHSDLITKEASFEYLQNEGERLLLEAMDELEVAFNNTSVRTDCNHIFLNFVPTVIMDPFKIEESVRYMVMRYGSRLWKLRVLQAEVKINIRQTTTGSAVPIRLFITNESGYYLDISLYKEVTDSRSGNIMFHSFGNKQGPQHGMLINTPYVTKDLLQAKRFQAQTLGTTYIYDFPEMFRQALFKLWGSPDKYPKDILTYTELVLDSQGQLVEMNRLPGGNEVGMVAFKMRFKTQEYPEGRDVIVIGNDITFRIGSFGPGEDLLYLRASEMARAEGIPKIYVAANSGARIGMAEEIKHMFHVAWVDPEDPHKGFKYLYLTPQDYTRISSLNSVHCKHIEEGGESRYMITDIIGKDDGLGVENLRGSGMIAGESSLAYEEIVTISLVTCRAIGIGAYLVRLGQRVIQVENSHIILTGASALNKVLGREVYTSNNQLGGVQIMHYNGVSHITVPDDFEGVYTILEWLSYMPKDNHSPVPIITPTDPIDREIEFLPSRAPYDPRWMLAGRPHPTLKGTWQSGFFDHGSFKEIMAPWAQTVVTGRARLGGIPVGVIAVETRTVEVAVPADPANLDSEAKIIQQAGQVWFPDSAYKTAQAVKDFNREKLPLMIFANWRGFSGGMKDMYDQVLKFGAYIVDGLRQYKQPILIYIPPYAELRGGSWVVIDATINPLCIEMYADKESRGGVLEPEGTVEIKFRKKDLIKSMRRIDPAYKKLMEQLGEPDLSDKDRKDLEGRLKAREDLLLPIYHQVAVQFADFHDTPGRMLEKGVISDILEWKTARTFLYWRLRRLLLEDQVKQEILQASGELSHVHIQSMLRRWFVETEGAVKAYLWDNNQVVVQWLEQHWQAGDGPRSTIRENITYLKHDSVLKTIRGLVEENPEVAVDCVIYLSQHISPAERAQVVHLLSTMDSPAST
For series [10], the target named is human serum albumin (HSA) (Homo sapiens, UniProt P02768). Put plainly: Protein binding to human serum albumin (HSA-Transil). To be noted: human, pH 7.4.
Sequence of human serum albumin (HSA) (P02768 25-609): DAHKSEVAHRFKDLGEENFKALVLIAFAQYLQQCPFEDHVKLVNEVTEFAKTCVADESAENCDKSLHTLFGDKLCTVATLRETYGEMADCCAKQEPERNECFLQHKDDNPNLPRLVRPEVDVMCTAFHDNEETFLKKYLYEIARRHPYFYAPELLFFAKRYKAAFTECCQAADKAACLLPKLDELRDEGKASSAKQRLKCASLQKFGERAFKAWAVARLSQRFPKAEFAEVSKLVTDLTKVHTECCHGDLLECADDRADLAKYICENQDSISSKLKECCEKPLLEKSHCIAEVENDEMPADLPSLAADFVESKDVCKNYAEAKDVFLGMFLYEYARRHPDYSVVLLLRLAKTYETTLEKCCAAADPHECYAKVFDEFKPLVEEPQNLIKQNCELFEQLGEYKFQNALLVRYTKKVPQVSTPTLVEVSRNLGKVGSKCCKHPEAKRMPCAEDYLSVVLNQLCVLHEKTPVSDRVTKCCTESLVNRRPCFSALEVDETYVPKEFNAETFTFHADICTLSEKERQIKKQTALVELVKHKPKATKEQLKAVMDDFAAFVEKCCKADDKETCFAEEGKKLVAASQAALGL

This note sets out measurements from patent US20140011853A1, “SUBSTITUTED 3-(BIPHENYL-3-YL)-8,8-DIFLUORO-4-HYDROXY-1-AZASPIRO[4.5]DEC-3-EN-2-ONES FOR THERAPY” (BAYER INTELLECTUAL PROPERTY GMBH, priority 2011, published 2014).

pIC50: −log10 of the molar value. Where “and” joins values, the source holds several entries; their conditions need not be identical. Equal values may be shown once.

In general, pIC50 refers to −log10 of the IC50, conventionally taken in molar units. One may read the chromatographic logP as a lipophilicity value derived from retention on a column. Read a high chromatographic logP as higher lipophilicity. For orientation: Kd means the constant that tells how readily two partners part at equilibrium. Low readings indicate a tighter complex, high ones a looser complex. For `Cc1ccc(-c2ccc(Cl)cc2)cc1C1=C(O)[C@]2(CC[C@H](C(F)(F)F)CC2)NC1=O` [V.2-a, (5s,8s)-3-(4′-Chloro-4-methylbiphenyl-3-yl)-4-hydroxy-8-(trifluoromethyl)-1-azaspiro[4.5]dec-3-en-2-one, reference compound], the “Selectivity ACC1 vs. ACC2 (mean of the individual measurements ± standard deviation)” value in series [1] came to 9.8 ± 1.4. In addition, in [1] (pairwise, same dilution series), the “Ratio of IC50s ACC2/ACC1 (respective measurement)” value was 11.2 and 8.4. Also, the pIC50 in [2] is 7.43; in series [3] it was 7.42; in [4], 7.24; in series [5] it was 7.46; in [9] it was 5.91 and 6.03. Further, in [6], the chromatographic logP was found to be 2.23. Further, the logMA in [7] is on record as 2.38 (2.0-2.7, n = 4). Also, in [8], the “fu (mouse)” value is given as 2.41%. The Kd at 0.25 μmol/liter in series [10] came out at 3070 nM.
